Source: patent publication US20230241178A1, “LONG ACTING GLP-1/GIP DUAL AGONISTS” (SUN PHARMACEUTICAL INDUSTRIES LIMITED, priority 2020, published 2023)
Marks after values point to notes of the source that are not given here. Numbered stars: 1 amine (or outer) side, 2 acyl side, 3 side chain; on linkers, the order of the positions; unused ones are H or OH. Square brackets hold non-standard residues; d marks the D form. Primed or numbered codes have the meaning given here. Ends that are not written are not given here. dSer(OMe) = COC[C@@H](N[*:1])C(=O)[*:2]; Moiety B″ = not defined here; Aib = CC(C)(N)C(=O)O

What was measured:
[1] = test system: type 2 diabetic mouse (db/db) model; assay: Reduction in blood glucose and effect on body weight and food intake, single dose, db/db mice (Tables 4, 5); format: in vivo; settings: for Delta Blood Glucose (mM), Mean: @ 3 nM s.c.
Protocol: The effect of Compounds of present invention on blood glucose was studied on mice. This study was performed in a type 2 diabetic mouse (db/db) model. […] Baseline blood glucose was measured from all the animals. All animals were administered with its respective test item subcutaneously. […] Delta blood glucose (mM) was calculated. Similarly body weight changes and cumulative food consumption was measured at 96 hr post treatment.

[2] = test system: type 2 diabetic mouse (db/db) model; assay: Effect on blood glucose, food intake and body weight, single s.c. dose 10 nM/kg, db/db mice (Tables 8, 9); format: in vivo; settings: 10 nM/kg/s.c/single dose
Protocol: This study was performed in a type 2 diabetic mouse (db/db) model. […] Baseline blood glucose was measured from all the animals. All the animals were administered with test items subcutaneously. Blood glucose was measured at 4 hr, 12 hr, 24 hr, 48 hr, 72 hr and 96 hr post treatment. Delta blood glucose (mM) was calculated. Body weight changes and cumulative food consumption was measured at 96 hr post treatment. Similarly the effect of Compounds 11-15 on blood glucose, food intake and body weight was studied in a separate study except for Compound 13. The results are shown in Table 8 (effect on blood glucose) and Table 9 (effect on body weight and food consumption).

[3] = test system: type 2 diabetic mouse (db/db) model; assay: Reduction of HbA1c in db/db type 2 diabetic mice after chronic treatment (HbA1c, insulin, triglycerides, food consumption, body weight); format: in vivo; settings: for Cumulative Food Consumption Day 0-28 / Insulin / Triglycerides / Δ% HbA1c vs. DC / Body Weight (%) Day 28 vs. Baseline: db/db mice
Protocol: This study was performed in a type 2 diabetic mouse (db/db) model. […] All the treatments were injected subcutaneously every third day for 10 doses (q3d*10). % HbA1c, Insulin, Triglycerides levels were measured on Day 0, day 14 and day 28. Cumulative food intake from day 0-28 and % Change in body weight compared to day 0 was calculated on day 28.

[4] = test system: type 2 diabetic mouse (db/db) model; assay: Effect of Compound 2 and 7 on blood glucose, body weight and food consumption in mice, up to 72 hr (Tables 6, 7); format: in vivo; settings: 90 nM/kg; mice, n = 8
Protocol: Similarly body weight changes and cumulative food consumption was measured at 72 hr post treatment.

[5] = molecular target: T1, GIP-receptor (GIPR) (UniProt P48546 22-466, limits assumed); assay: cell-based or functional assay
T1 sequence (looked up): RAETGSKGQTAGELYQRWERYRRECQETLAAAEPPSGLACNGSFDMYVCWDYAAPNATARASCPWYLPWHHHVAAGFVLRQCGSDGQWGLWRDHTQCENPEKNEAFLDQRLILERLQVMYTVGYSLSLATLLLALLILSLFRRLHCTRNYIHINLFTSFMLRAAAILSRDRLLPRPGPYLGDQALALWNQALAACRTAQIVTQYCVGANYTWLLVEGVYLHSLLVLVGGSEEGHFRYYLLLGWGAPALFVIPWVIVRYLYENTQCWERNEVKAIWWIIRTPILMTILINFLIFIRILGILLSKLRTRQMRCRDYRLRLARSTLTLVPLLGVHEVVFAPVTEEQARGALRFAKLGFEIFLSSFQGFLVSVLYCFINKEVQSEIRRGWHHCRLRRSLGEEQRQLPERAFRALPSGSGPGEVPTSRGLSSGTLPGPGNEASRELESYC

[6] = molecular target: glucagon-like peptide-1 receptor (GLP-1R) (UniProt P43220 24-463, limits assumed); assay: cell-based or functional assay
[7] = 59 nM/kg s.c., separate study n = 5

For “Compound 3: Seq ID: 06 polypeptide, Lys acylated with Moiety B (Y[dSer(OMe)]EGTFTSDYSI[Aib]LDKIAQK(Moiety B″)AFVQWLIAGGPSSGAPPPS-NH2; reading uncertain)”, the “Cumulative Food Intake (g) 0-96 hr, Mean” value ([1]; 3 nM/kg s.c., n = 6 study) was 21.9 g, the “Body Weight Change (%) 96 hr., Mean” value ([1]; 3 nM/kg s.c., n = 6 study) was −2.5*** % and the “Delta Blood Glucose (mM), Mean” value ([1]; 4 hr post treatment, n = 6 study) was -9.2 mM. For the same molecule, the “Delta Blood Glucose (mM), Mean” value ([1]; 12 hr post treatment, n = 6 study) was -2.9 mM, the “Delta Blood Glucose (mM), Mean” value ([1]; 24 hr post treatment, n = 6 study) was 1.6 mM and the “Delta Blood Glucose (mM), Mean” value ([1]; 48 hr post treatment, n = 6 study) was 0.7 mM. For the same molecule, the “Delta Blood Glucose (mM), Mean” value ([1]; 72 hr post treatment, n = 6 study) was 2 mM and the “Delta Blood Glucose (mM), Mean” value ([1]; 96 hr post treatment, n = 6 study) was 2.1 mM.

For “Compound 11: Seq ID: 11 polypeptide, Lys acylated with Moiety B (YXEGTFTSDYSIXLDKIAQKAFVQWLIAGGPSSGAPPPSR; (2)..(2) Xaa = Aib (2-Aminoisobutyric acid); (13)..(13) Xaa = Aib (2-Aminoisobutyric acid); (20)..(20) Side chain amino (Epsilon amino) group of Lys is substituted)”, the “Delta Blood Glucose (mM), Mean” value ([2]; 0 hr (baseline)) was 0.0 mM, the “Body Wt. Change (%) 96 hr. vs. Baseline, Mean” value [2] was −4.5*** % and the “Cumulative food Intake (g) 96 hr. vs. Baseline, Mean” value [2] was 14.1*** g. For the same molecule, the “blood glucose reduction post treatment (in words)” value [2] was “statistically significant blood glucose reduction”, the “Delta Blood Glucose (mM), Mean” value ([2]; 4 hr post treatment) was −10.5*** mM and the “Delta Blood Glucose (mM), Mean” value ([2]; 12 hr post treatment) was −11.2*** mM. The “Delta Blood Glucose (mM), Mean” value ([2]; 24 hr post treatment) was −14.6*** mM, the “Delta Blood Glucose (mM), Mean” value ([2]; 48 hr post treatment) was −6.4*** mM and the “Delta Blood Glucose (mM), Mean” value ([2]; 72 hr post treatment) was −2.9*** mM. For the same molecule, the “Delta Blood Glucose (mM), Mean” value ([2]; 96 hr post treatment) was 1.1 mM.

In the case of “Compound 12: Seq ID: 11 polypeptide, Lys acylated with Moiety C (YXEGTFTSDYSIXLDKIAQKAFVQWLIAGGPSSGAPPPSR; (2)..(2) Xaa = Aib (2-Aminoisobutyric acid); (13)..(13) Xaa = Aib (2-Aminoisobutyric acid); (20)..(20) Side chain amino (Epsilon amino) group of Lys is substituted)”, the “Delta Blood Glucose (mM), Mean” value ([2]; 0 hr (baseline)) is reported as 0.0 mM, the “Body Wt. Change (%) 96 hr. vs. Baseline, Mean” value [2] is reported as −3.1** % and the “Cumulative food Intake (g) 96 hr. vs. Baseline, Mean” value [2] is reported as 15.2*** g. For the same molecule, the “Delta Blood Glucose (mM), Mean” value ([2]; 4 hr post treatment) was −14.2*** mM, the “Delta Blood Glucose (mM), Mean” value ([2]; 12 hr post treatment) was −13.0*** mM and the “Delta Blood Glucose (mM), Mean” value ([2]; 24 hr post treatment) was −8.0*** mM. The “Delta Blood Glucose (mM), Mean” value ([2]; 48 hr post treatment) was −5.5* mM, the “Delta Blood Glucose (mM), Mean” value ([2]; 72 hr post treatment) was -2.9 mM and the “Delta Blood Glucose (mM), Mean” value ([2]; 96 hr post treatment) was 1.7 mM.

“Compound 16: Seq ID: 11 polypeptide, Lys acylated with Moiety D (YXEGTFTSDYSIXLDKIAQKAFVQWLIAGGPSSGAPPPSR; (2)..(2) Xaa = Aib (2-Aminoisobutyric acid); (13)..(13) Xaa = Aib (2-Aminoisobutyric acid); (20)..(20) Side chain amino (Epsilon amino) group of Lys is substituted)” was tested, and the “Delta Blood Glucose (mM), Mean” value ([2]; 0 hr (baseline)) was 0.0 mM, the “Delta Blood Glucose (mM), Mean” value ([2]; 4 hr post treatment) was −14.4*** mM and the “Delta Blood Glucose (mM), Mean” value ([2]; 12 hr post treatment) was −12.1*** mM. For the same molecule, the “Delta Blood Glucose (mM), Mean” value ([2]; 24 hr post treatment) was −10.8*** mM, the “Delta Blood Glucose (mM), Mean” value ([2]; 48 hr post treatment) was −4.9** mM and the “Delta Blood Glucose (mM), Mean” value ([2]; 72 hr post treatment) was 0.8 mM. The “Delta Blood Glucose (mM), Mean” value ([2]; 96 hr post treatment) was 0.7* mM.

Tirzepatide [reference compound] was tested, and the “improvement in HbA1c reduction from day 14 to day 28 (in words)” value ([3]; 180 nM/kg dose) was “minimal improvement in HbA1c reduction”, the “Cumulative Food Consumption Day 0-28” value ([3]; 90 nM/kg s.c. q3d*10) was 119.1 and the “Cumulative Food Consumption Day 0-28” value ([3]; 180 nM/kg s.c. q3d*10) was 90.1. The Insulin ([3]; Day 14, 90 nM/kg s.c. q3d*10) was 65.23 ng/mL, the Triglycerides ([3]; Day 14, 90 nM/kg s.c. q3d*10) was 168.7 mg/dL and the “Δ% HbA1c vs. DC” value ([3]; Day 14, 90 nM/kg s.c. q3d*10) was −2.63*** %. The Insulin ([3]; Day 14, 180 nM/kg s.c. q3d*10) was 71.77 ng/mL, the Triglycerides ([3]; Day 14, 180 nM/kg s.c. q3d*10) was 143.4 mg/dL and the “Δ% HbA1c vs. DC” value ([3]; Day 14, 180 nM/kg s.c. q3d*10) was −3.50*** %. For the same molecule, the “Body Weight (%) Day 28 vs. Baseline” value ([3]; Day 28, 90 nM/kg s.c. q3d*10) was −0.9%, the Insulin ([3]; Day 28, 90 nM/kg s.c. q3d*10) was 52.32 ng/mL and the Triglycerides ([3]; Day 28, 90 nM/kg s.c. q3d*10) was 167.4 mg/dL. The “Δ% HbA1c vs. DC” value ([3]; Day 28, 90 nM/kg s.c. q3d*10) was −3.43*** %, the “Body Weight (%) Day 28 vs. Baseline” value ([3]; Day 28, 180 nM/kg s.c. q3d*10) was −6.8% and the Insulin ([3]; Day 28, 180 nM/kg s.c. q3d*10) was 60.19 ng/mL. For the same molecule, the Triglycerides ([3]; Day 28, 180 nM/kg s.c. q3d*10) was 141.3 mg/dL, the “Δ% HbA1c vs. DC” value ([3]; Day 28, 180 nM/kg s.c. q3d*10) was −3.74*** % and the “% Body wt. change 72 hr. vs. 0 hr., Mean” value [4] was −6.7*** %. For the same molecule, the “Cumulative Food Consumption (0-72 hr) (g), Mean” value [4] was 8.1** g, the “Cumulative Food Intake (g) 0-96 hr, Mean” value ([1]; 10 nM/kg s.c., n = 6 study) was 13.3*** g and the “Body Weight Change (%) 96 hr., Mean” value ([1]; 10 nM/kg s.c., n = 6 study) was −3.4*** %. For the same molecule, the “Cumulative Food Intake (g) 0-96 hr, Mean” value [1, 7] was 15.9 g and the “Body Weight Change (%) 96 hr., Mean” value [1, 7] was −2.8** %.

B1: Compound 2 (peptide)
peptide: YXEGTFTSDYSIXLDKIAQKAFVQWLIAGGPSSGAPPPS
modifications: Aib at positions 2 and 13; side chain epsilon-amino group of Lys 20 acylated with Moiety B (U-W-Y-Z with W = -C(O)-C(CH3)2-NH-, i.e. 2-[2-(2-aminoethoxy)ethoxy]acetyl-Aib-gammaGlu-C20 diacid); C-terminal primary amide (Ser-NH2)
B1 was tested, and the “Tirzepatide/Compound 2 ratio of half-maximal effective concentrations, cellular cAMP assay” value [5] was 0.81 ratio and the “Tirzepatide/Compound 2 ratio of half-maximal effective concentrations, cellular cAMP assay” value [6] was 1.68 ratio.
